In test [1] the target is Glycogen synthase kinase-3 (Homo sapiens, UniProt P49840+P49841). Description: Inhibitory concentration against the Glycogen synthase kinase-3. In kind it is protein assay.
The species named for test [2] is Homo sapiens. Description: IC50 ratio between PKCbeta II and GSK-3.
The species entered for test [3] is Homo sapiens. Description: IC50 ratio between CDK4 and GSK-3.
Test [4] addresses Glycogen synthase kinase-3 beta (Homo sapiens, UniProt P49841). Nature of the test: Inhibitory concentration to inhibit Ser396 phosphorylation of tau, a natural substrate of GSK-3 in SY5Y cells. Format: functional, cell-based.

Here are results for 45 compounds from ChEMBL document CHEMBL1141975, “The development of potent and selective bisarylmaleimide GSK3 inhibitors” (Bioorg Med Chem Lett, 2005).

Chain of Glycogen synthase kinase-3 beta (P49841 whole entry): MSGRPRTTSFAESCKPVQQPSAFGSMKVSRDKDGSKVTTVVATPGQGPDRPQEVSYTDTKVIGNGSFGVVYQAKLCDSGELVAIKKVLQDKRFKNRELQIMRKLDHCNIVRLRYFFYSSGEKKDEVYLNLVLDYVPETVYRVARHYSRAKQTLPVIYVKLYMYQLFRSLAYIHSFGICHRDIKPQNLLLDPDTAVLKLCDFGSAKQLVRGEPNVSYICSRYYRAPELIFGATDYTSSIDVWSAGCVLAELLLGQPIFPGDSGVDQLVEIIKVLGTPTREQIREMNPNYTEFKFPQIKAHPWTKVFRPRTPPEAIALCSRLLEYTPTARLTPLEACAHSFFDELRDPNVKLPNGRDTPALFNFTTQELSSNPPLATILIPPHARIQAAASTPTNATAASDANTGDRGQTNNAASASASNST

For the compound `O=C1NC(=O)C(c2cn3c4c(cccc24)CNCC3)=C1c1cccc2c1OCO2`, the half-inhibitory concentration (IC50) in test [1] is recorded as 13 nM. Moreover, the results for the Selectivity in test [2] and in test [3] were 103 and 2, respectively.
Take `O=C1NC(=O)C(c2cnc3ccccn23)=C1c1cn2c3c(cccc13)CNCC2`: the IC50 in test [1] was 12 nM. The Selectivity in test [2] turned out to be 28; in test [3], 13.
As to `CC(=O)N1CCn2cc(C3=C(c4cnc5ccccn45)C(=O)NC3=O)c3cccc(c32)C1`, the IC50 in test [1] was determined as 1.9 nM; in test [4], 111 nM. Further, the Selectivity came out at 457 in test [2] and 483 in test [3].
On to `O=C1NC(=O)C(c2cnc3cccnn23)=C1c1cn2c3c(cccc13)CN(C(=O)N1CCCCC1)CC2` [BISARYLMALEIMIDE 1], for which the IC50 was found to be 1.6 nM in test [1] and 0.3 nM in test [4]. The Selectivity is 1300 in test [2] and 1330 in test [3].
With `CN(C)C(=O)N1CCn2cc(C3=C(c4cccc5ccoc45)C(=O)NC3=O)c3cccc(c32)C1`, the IC50 in test [1] is recorded as 2.7 nM. Further, the figures for the Selectivity in test [2] and in test [3] were 89 and 35, respectively.
As for `CN(C)C(=O)N1CCn2cc(C3=C(c4ccn5ncccc45)C(=O)NC3=O)c3cccc(c32)C1`, the IC50 in test [1] worked out at 4.7 nM; in test [4], 38 nM. Also, the Selectivity in test [2] was determined as 235; in test [3] it was 370.
Regarding `O=C1NC(=O)C(c2cn3c4c(cccc24)CNCC3)=C1c1cccc2c1ccn2CCCO`, in test [1], the IC50 was 27 nM. Further, the values for the Selectivity in test [2] and in test [3] were 9 and 1, respectively.
For `CC(=O)N1CCn2cc(C3=C(c4cccc5ccsc45)C(=O)NC3=O)c3cccc(c32)C1`, in that order: 19 nM, 7 and 7.
On to `CC(=O)N1CCn2cc(C3=C(c4cccc5c4OCO5)C(=O)NC3=O)c3cccc(c32)C1`, for which the 50% inhibitory concentration (IC50) in test [1] was 2.5 nM. For the same compound, the Selectivity in test [2] worked out at 240; in test [3] it was 50.
In turn, `O=C1NC(=O)C(c2cccc3cc[nH]c23)=C1c1cn2c3c(cccc13)CNCC2` displayed a concentration for half-maximal inhibition (IC50) in test [1] of 150 nM.
On to `O=C1NC(=O)C(c2cn3c4c(cccc24)CNCC3)=C1c1cccc2c1CCO2`, for which the half-inhibitory concentration (IC50) in test [1] is recorded as 130 nM.
Take `O=C1NC(=O)C(c2cnc3ccccn23)=C1c1cn2c3c(cccc13)CN(C(=O)N1CCCCC1)CC2`: the 50% inhibitory concentration (IC50) in test [1] came out at 2 nM. Besides, the Selectivity amounted to 281 in test [2] and 2420 in test [3].
In the case of `CC(=O)N1CCn2cc(C3=C(c4cccc5c4OCC5)C(=O)NC3=O)c3cccc(c32)C1`, the IC50 in test [1] worked out at 1.1 nM. Further, the Selectivity in test [2] amounted to 133; in test [3] it was 77.
For `CC(=O)N1CCn2cc(C3=C(c4cncc5ccoc45)C(=O)NC3=O)c3cccc(c32)C1`, in that order: 0.9 nM, 422 and 60.
In the case of `CCC(=O)N1CCn2cc(C3=C(c4cncc5ccoc45)C(=O)NC3=O)c3cccc(c32)C1`, the half-maximal inhibitory concentration (IC50) in test [1] worked out at 1 nM. Moreover, the Selectivity in test [2] came out at 375; in test [3], 98.
Regarding `Cn1ccc2c(C3=C(c4cn5c6c(cccc46)CNCC5)C(=O)NC3=O)cccc21`, the 50% inhibitory concentration (IC50) in test [1] is on record as 33 nM. In addition, the Selectivity in test [2] was found to be 28; in test [3], 1.
The compound `O=C1NC(=O)C(c2cnc3ncccn23)=C1c1cn2c3c(cccc13)CNCC2` showed an IC50 in test [1] of 120 nM. The Selectivity in test [2] was found to be 112; in test [3], 20.
In test [1], `O=C1NC(=O)C(c2cccc3ccsc23)=C1c1cn2c3c(cccc13)CNCC2` came in with a 50% inhibitory concentration (IC50) of 45 nM. Moreover, the Selectivity was 15 in test [2] and 1 in test [3].
`O=C1NC(=O)C(c2cn3c4c(cccc24)CNCC3)=C1c1cccc2c1OCC2` yielded an IC50 in test [1] of 3.3 nM. The Selectivity worked out at 53 in test [2] and 7 in test [3].
In test [1], `CN(C)C(=O)N1CCn2cc(C3=C(c4cncc5ccoc45)C(=O)NC3=O)c3cccc(c32)C1` returned an IC50 of 1.2 nM. In addition, in test [3], the Selectivity stood at 112.
In test [1], `O=C1NC(=O)C(c2cncc3ccoc23)=C1c1cn2c3c(cccc13)CNCC2` had an IC50 of 3.2 nM. For the same compound, the values for the Selectivity in test [2] and in test [3] were 54 and 6, respectively.
In test [1], `CN(C)C(=O)N1CCn2cc(C3=C(c4cccc5c4OCO5)C(=O)NC3=O)c3cccc(c32)C1` came in with a concentration for half-maximal inhibition (IC50) of 3.2 nM. In addition, the Selectivity in test [2] is 190; in test [3], 89.
In the case of `O=C1NC(=O)C(c2cnc3ncccn23)=C1c1cn2c3c(cccc13)CN(C(=O)N1CCCCC1)CC2`, the half-maximal inhibitory concentration (IC50) in test [1] amounted to 1.9 nM; in test [4], 53 nM. Besides, the Selectivity in test [2] is above 1060; in test [3], 10000.
`O=C1NC(=O)C(c2cnc3cccnn23)=C1c1cn2c3c(cccc13)CNCC2`: the 50% inhibitory concentration (IC50) in test [1] was determined as 4.8 nM. For the same compound, the Selectivity is 133 in test [2] and 15 in test [3].
In test [1], `O=C1NC(=O)C(c2cnc3ccccn23)=C1c1cn2c3c(cccc13)CN(C(=O)N1CCOCC1)CC2` had a half-maximal inhibitory concentration (IC50) of 1.3 nM.
Regarding `O=C1NC(=O)C(c2cnc3cnccn23)=C1c1cn2c3c(cccc13)CNCC2`, the IC50 in test [1] amounted to 60 nM. Further, the Selectivity is above 334 in test [2] and 19 in test [3].
As to `O=C1NC(=O)C(c2cccc3ccoc23)=C1c1cn2c3c(cccc13)CNCC2`, the 50% inhibitory concentration (IC50) in test [1] is 3.4 nM. Besides, the Selectivity in test [2] is 183; in test [3], 5.
With `O=C1NC(=O)C(c2cn3c4c(cccc24)CNCC3)=C1c1coc2ccccc12`, the half-inhibitory concentration (IC50) in test [1] came out at 64 nM.
Turning to `O=C1NC(=O)C(c2cnc3cnccn23)=C1c1cn2c3c(cccc13)CN(C(=O)N1CCCCC1)CC2`, the IC50 in test [1] is 2.1 nM; in test [4], 8.7 nM. For the same compound, the Selectivity is above 9500 in test [2] and 8920 in test [3].
Taken in the same sequence, the figures for `CC(C)C(=O)N1CCn2cc(C3=C(c4cnc5ccccn45)C(=O)NC3=O)c3cccc(c32)C1` were 1.8 nM, 5 nM, 522 and 2020.
As to `O=C1NC(=O)C(c2cn3c4c(cccc24)CNCC3)=C1c1cccc2sccc12`, the IC50 in test [1] turned out to be 34 nM.
Turning to `O=C1NC(=O)C(c2cnc3ccncn23)=C1c1cn2c3c(cccc13)CNCC2`, the half-maximal inhibitory concentration (IC50) in test [1] is 330 nM. The results for the Selectivity in test [2] and in test [3] were 3 and 14, respectively.
In turn, `CC(=O)N1CCn2cc(C3=C(c4cccc5ccoc45)C(=O)NC3=O)c3cccc(c32)C1` displayed an IC50 in test [1] of 1.5 nM. For the same compound, the results for the Selectivity in test [2] and in test [3] were 80 and 25, respectively.
In test [1], `O=C1NC(=O)C(c2cn3c4c(cccc24)CNCC3)=C1c1cccc2occc12` showed a half-maximal inhibitory concentration (IC50) of 41 nM. Also, the Selectivity worked out at 39 in test [2] and 1 in test [3].
`O=C1NC(=O)C(c2ccn3ncccc23)=C1c1cn2c3c(cccc13)CN(C(=O)N1CCOCC1)CC2`: the half-maximal inhibitory concentration (IC50) in test [1] worked out at 1.3 nM. Also, in test [3], the Selectivity came out at 1900.
`O=C1NC(=O)C(c2cncc3ccoc23)=C1c1cn2c3c(cccc13)CN(C(=O)N1CCOCC1)CC2` [BISARYLMALEIMIDE 2] gave an IC50 in test [1] of 0.8 nM. In addition, the Selectivity in test [3] was determined as 158.
Turning to `CN(C)C(=O)N1CCn2cc(C3=C(c4cnc5ccccn45)C(=O)NC3=O)c3cccc(c32)C1`, the IC50 in test [1] amounted to 1.6 nM. The Selectivity in test [2] is 635; in test [3], 907.
`O=C1NC(=O)C(c2cn3c4c(cccc24)CNCC3)=C1c1ccc2c(c1)OCO2` registered an IC50 in test [1] of 27 nM. For the same compound, the figures for the Selectivity in test [2] and in test [3] were 202 and 18, respectively.
As for `O=C1NC(=O)C(c2cnc3ncccn23)=C1c1cn2c3c(cccc13)CN(C(=O)N1CCOCC1)CC2`, the values for the half-maximal inhibitory concentration (IC50) in test [1] and in test [4] were 1.7 nM and 297 nM, respectively. The Selectivity in test [2] was above 11800; in test [3] it was 8580.
`O=C1NC(=O)C(c2cnc3ccncn23)=C1c1cn2c3c(cccc13)CN(C(=O)N1CCOCC1)CC2` gave an IC50 in test [1] of 71 nM. The Selectivity in test [2] and in test [3] was above 282 throughout.
Consider `O=C1NC(=O)C(c2cn3c4c(cccc24)CNCC3)=C1c1ccc2c(c1)COC2`, for which, in test [1], the IC50 was 83 nM.
As for `O=C1NC(=O)C(c2cnc3ccccn23)=C1c1cn2c3c(cccc13)CN(C(=O)C1CCOCC1)CC2`, the IC50 is 0.8 nM in test [1] and 7.7 nM in test [4]. Moreover, the Selectivity in test [2] was 1740; in test [3], 2650.
On to `O=C1NC(=O)C(c2cncc3ccoc23)=C1c1cn2c3c(cccc13)CN(C(=O)N1CCCCC1)CC2`, for which the IC50 in test [1] turned out to be 2.1 nM. For the same compound, the Selectivity in test [2] stood at 108; in test [3], 92.
For `O=C1NC(=O)C(c2cnc3cnccn23)=C1c1cn2c3c(cccc13)CN(C(=O)N1CCOCC1)CC2`, the IC50 was 3.2 nM in test [1] and 11 nM in test [4]. In addition, the Selectivity in test [2] is above 6300; in test [3] it was 4550.
Consider `O=C1NC(=O)C(c2ccn3ncccc23)=C1c1cn2c3c(cccc13)CNCC2`, for which the half-inhibitory concentration (IC50) in test [1] was 30 nM. The results for the Selectivity in test [2] and in test [3] were 18 and 10, respectively.

Broadly, the IC50 is the midpoint of a concentration-inhibition curve. The low end stands for greater potency, the high end for weaker potency.
